“Also recorded” adds a separate entry of the source. Where two headings read alike, the source gives them in different places. Ends that are not written are not given here.
Assays:
[1] = system: non-obese diabetic (NOD) mice; conditions: LSF alone, when hyperglycemia became detectable; cited from earlier work
[2] = cited from earlier work
[3] = system: NOD mice with spontaneous diabetes; assay: Therapy regimen of LSF and INGAP in spontaneously diabetic NOD mice maintained on insulin pellets; type: in vivo; conditions: for blood glucose levels (non-fasting) at the end of treatments: FIG. 3, diabetic NOD mice, LSF 27 mg/kg/day continuous sc infusion, INGAP 500 μg qd ip; for remission rate of diabetes: FIG. 5, diabetic NOD mice observed after all therapy stopped
Method: The following example illustrates a therapy regimen (FIG. 1) involving INGAP peptide and LSF for building and preserving β-cell mass and increasing insulin production in a mammal. NOD mice were monitored for diabetes by measuring blood glucose levels. Mice were allowed to develop spontaneous diabetes, which usually occurs around the age of 18 weeks. Non-fasting blood glucose levels >250 mg/dL measured for 3 different days was considered evidence of diabetes onset. Shortly after diagnosing diabetes, the NOD mice received an insulin pellet implanted subcutaneously in order to maintain them during the treatment period of 6 to 7 weeks. The pellet provides 0.1 U/d of bovine insulin. The mice were then assigned to one of 5 treatment groups: Group 1—Normal saline via continuous subcutaneous infusion (placebo). The saline was delivered via an implantable subcutaneous osmotic mini-pump. The mice received the placebo for 4 weeks and continued on insulin for another 2 weeks. The insulin was then stopped, and the mice observed to determine if the treatment was effective. Group 2—LSF (27 mg/kg/day via continuous subcutaneous infusion) alone. The LSF was delivered via an implantable subcutaneous osmotic mini-pump. The mice received LSF for 4 weeks, continued on insulin for another 2 weeks, and then observed to determine if the treatment was effective. Group 3—INGAP (500 μg qd ip) alone. The mice received INGAP and insulin for 6 weeks, the treatment was then stopped, and the mice observed to determine if the treatment was effective. Group 4—LSF (27 mg/kg/day via continuous subcutaneous infusion) plus INGAP (500 μg qd ip) administered concomitantly. The LSF was delivered via an implantable subcutaneous osmotic mini-pump. The mice received LSF for 4 weeks and INGAP and insulin for 6 weeks. The treatments were then stopped and the mice observed to determine if the treatment was effective. Group 5—LSF (27 mg/kg/day via continuous subcutaneous infusion) for a week of pretreatment as monotherapy. Here the immune system was first treated to ‘cool it off’ so that any new islets would be growing in a less hostile environment. INGAP was then added to the treatment regimen (at 500 μg qd ip) and administered concomitantly with the LSF for an additional 5 weeks. LSF treatment was discontinued at week 6. INGAP and Insulin were continued for 1 more week until week 7. All therapy was then discontinued and the mice observed to determine if the treatment was effective. See treatment timeline depicted in FIG. 2.

[4] = system: streptozotocin-induced diabetic mice; conditions: cited from earlier work

| Molecule | reversal of autoimmune diabetes [1] | safety in clinical studies ([2]; clinical studies, open IND on file with FDA) | blood glucose levels (non-fasting) at the end of treatments [3] | remission rate of diabetes [3] | safety in clinical studies ([2]; in vivo) | effect on islet formation and glycemia [4] | insulin production of treated animals ([3]; FIG. 15) |
| --- | --- | --- | --- | --- | --- | --- | --- |
| C[C@@H](O)CCCCn1c(=O)c2c(ncn2C)n(C)c1=O [LSF, 1-(5-R-hydroxyhexyl)-3,7-dimethylxanthine] | did not reverse | safe | little or no effect | no remission; also recorded: No mice | – | – | – |
| IGLHDPSHGTLPNGS [INGAP] | – | – | little or no effect | 10% | safe | restore euglycemia | producing insulin |
